Measurements published in patent publication US5464820A, “Specific inhibitors of tissue kallikrein” (priority 1993, dated 1995).
Where “and” joins values, the source holds several entries; their conditions need not be identical. Equal values may be shown once. Read-outs that look alike come from different tables or passages of the source. Starred links: 1 amine or outer side, 2 acyl side, 3 side chain; linkers in the order of their positions; H or OH if unused. Non-standard residues stand in square brackets, D forms with d. Residues, ends and D or L forms follow the SMILES beside them. X3 = O=C([C@H](N[*:1])C12CC3CC(CC(C3)C1)C2)[*:2]; Phe(4-NH2) = Nc1ccc(C[C@H](N)C(=O)O)cc1; 2Nal = N[C@@H](Cc1ccc2ccccc2c1)C(=O)O; X2 = CCC(CC)[C@@H](N[*:1])C(=O)[*:2]; Orn = NCCC[C@H](N)C(=O)O

Tests used:
[1] = target: human plasma kallikrein (HPK) (Homo sapiens, UniProt P03952); assay: Inhibition of human plasma kallikrein (KI); type: biochemical
Text: (§1) Assay methods were based on the cleavage of chromogenic substrate S-2266 (D-Val-Leu-Arg-pNA) (Kabi; Charlotte, N.C.) by porcine pancreatic kallikrein (Sigma Chemical Company; St. Louis, Mo.) to yield an increase in absorbance at 405 nm. By changing the substrate and enzyme, the general method has been extended to measure the inhibition of human tissue kallikrein (HTK or human urinary kallikrein HUK), human plasma kallikrein (HPK), plasmin, and urokinase (UK). In all assays, the robot dilutes the inhibitor into a series of wells and adds substrate and buffer. Chromogenic reactions are started by the addition of enzyme. Changes in the absorbance at 405 nm in an array of wells were recorded. All manipulations were performed by the instrument from reservoirs containing substrate, inhibitor, diluent (water), buffer, or enzyme.

urokinase (UK) = target: T1, urokinase (UK) (Homo sapiens, UniProt P00749); assay: Inhibition of urokinase (KI); type: biochemical; conditions: Table 7; read-out: K1 UK
T1 construct: purchased Sigma Chemical Company (St. Louis, Mo.)
Text: as §1

[2] = target: porcine pancreatic kallikrein (PPK) (Sus scrofa, UniProt P00752); assay: Inhibition of porcine pancreatic kallikrein, cleavage of chromogenic substrate S-2266 (KI); type: biochemical
[3] = Measured lipophilicity (KO/W); type: physicochemical; conditions: Table 2, measured lipophilicity, change relative to Gly analog
Text: Listed in Table 2 are KI values along with changes in volume (ΔV), measured lipophilicity (ΔKO/W), and calculated lipophilicity (ΔCLOGP). Some of the substrates containing a D-amino acid residue at P3 are rapidly hydrolyzed by tissue kallikrein. To overcome this problem, a new method was also used to determine KI (see Example 6).

[4] = target: T2, human urinary kallikrein (HUK) (Homo sapiens, UniProt P06870); assay: Inhibition of human urinary (tissue) kallikrein (KI); type: biochemical
T2 construct: Human urinary kallikrein (HUK) was purified from human urine; from tissue
Method: Human urinary kallikrein (HUK) was purified from human urine. Briefly, urine was subjected to ultrafiltration to concentrate the protein components which were applied to approtinin-CH-Sepharose affinity columns. Active fractions from these columns were next applied to Sephadex G-100 gel filtration and collected as fractions. The pH of each fraction was determined immediately upon elution, and the fraction was neutralized by addition of 2.0 ml of 2M Tris-HCL buffer, pH 8.0. Porcine pancreatic 24-kallikrein (PPK), at 50 units/mg protein; 1.0 units hydrolyses 1.0 μM BAEE (benzoyl -L-arginine ethyl ester) to N-a-benzoyl-L-arginine/minute at pH 8.7 at 25° C., was purchased from Sigma Chemical Company (St. Louis, Mo.). […] All other enzymes were purchased from Sigma Chemical Company (St. Louis, Mo.).
Dixon plots were used for data reduction and for calculation of […].
as §1

[5] = Table 7, in mM, read-out: K1 HPK
[6] = Table 7, in mM, read-out: K1 PPK

Sequence of porcine pancreatic kallikrein (PPK) (P00752 8-87 limits assumed): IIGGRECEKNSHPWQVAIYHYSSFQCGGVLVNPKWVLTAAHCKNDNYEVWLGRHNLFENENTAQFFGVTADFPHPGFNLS
Sequence of porcine pancreatic kallikrein (PPK) (P00752 95-246 limits assumed): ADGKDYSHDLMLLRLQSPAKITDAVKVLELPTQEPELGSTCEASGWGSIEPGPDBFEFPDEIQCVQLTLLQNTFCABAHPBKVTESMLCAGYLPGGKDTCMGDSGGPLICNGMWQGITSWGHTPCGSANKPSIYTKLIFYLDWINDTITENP
T2 sequence (P06870 25-262): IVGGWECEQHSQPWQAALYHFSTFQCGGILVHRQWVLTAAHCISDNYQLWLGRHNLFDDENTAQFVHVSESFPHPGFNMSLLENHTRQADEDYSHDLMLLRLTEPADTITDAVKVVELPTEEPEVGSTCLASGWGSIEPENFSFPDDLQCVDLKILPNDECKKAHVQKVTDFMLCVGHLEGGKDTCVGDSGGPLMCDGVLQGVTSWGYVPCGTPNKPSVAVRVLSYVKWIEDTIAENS
Sequence of human plasma kallikrein (HPK) (P03952 20-638): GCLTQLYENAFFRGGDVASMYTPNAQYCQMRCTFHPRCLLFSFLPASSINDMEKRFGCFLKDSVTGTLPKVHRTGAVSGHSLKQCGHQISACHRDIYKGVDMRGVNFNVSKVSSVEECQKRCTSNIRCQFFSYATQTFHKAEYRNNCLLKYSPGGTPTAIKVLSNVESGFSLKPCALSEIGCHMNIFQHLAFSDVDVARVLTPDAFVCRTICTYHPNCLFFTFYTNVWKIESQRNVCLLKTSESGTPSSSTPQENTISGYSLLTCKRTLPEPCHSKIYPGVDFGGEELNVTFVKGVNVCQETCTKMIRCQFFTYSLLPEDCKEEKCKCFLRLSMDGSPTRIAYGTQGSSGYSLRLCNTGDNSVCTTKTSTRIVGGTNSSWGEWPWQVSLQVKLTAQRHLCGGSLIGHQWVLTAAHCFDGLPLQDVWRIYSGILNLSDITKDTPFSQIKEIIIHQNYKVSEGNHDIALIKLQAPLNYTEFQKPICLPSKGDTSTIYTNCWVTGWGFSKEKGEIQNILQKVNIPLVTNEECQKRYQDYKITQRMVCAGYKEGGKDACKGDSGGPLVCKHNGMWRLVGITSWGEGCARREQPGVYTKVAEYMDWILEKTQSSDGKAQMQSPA

`CSCC[C@H](NC(=O)[C@H](Cc1ccccc1)NC(=O)[C@@H]1CCCN1)C(=O)N[C@@H](CO)C(=O)N[C@H](C(=O)N[C@@H](CCC(N)=O)C(N)=O)C(C)C` [KIDZ-13, Pro-Phe-Met-Ser-Val-Gln] (H-PFMSVQ-NH2) showed a Ki [1, 5] of over 20 mM, a Ki (urokinase (UK)) of over 20000 µM and a Ki [2, 6] of over 4 mM.

`CC(C)[C@H](NC(=O)[C@H](CO)NC(=O)[C@H](CCCN)NC(=O)[C@H](Cc1ccccc1)NC(=O)[C@@H]1CCCN1)C(=O)N[C@@H](CCC(N)=O)C(N)=O` [KIDZ-3, Pro-Phe-Orn-Ser-Val-Gln] (H-PF[Orn]SVQ-NH2) showed a Ki [1, 5] of over 5 mM, a Ki (urokinase (UK)) of over 20000 µM and a Ki [2, 6] of over 5 mM.

For Pro-Map-Aph-Ser-Val-Gln [KIDZ-15], the Ki [1, 5] was over 20 mM, the Ki (urokinase (UK)) was over 20000 µM and the “selectivity for tissue kallikrein over plasma kallikrein or urokinase” value ([2]; Table 7) was “selectivity for tissue kallikrein over plasma kallikrein or urokinase”. It also gave a Ki ([2]; Table 7, read-out: K1 PPK) of 0.11 mM.

With `CC(C)[C@H](NC(=O)[C@H](CO)NC(=O)[C@H](CCCCN)NC(=O)[C@H](Cc1ccccc1)NC(=O)[C@@H]1CCCN1)C(=O)N[C@@H](CCC(N)=O)C(N)=O` [KIDZ-2, Pro-Phe-Lys-Ser-Val-Gln] (H-PFKSVQ-NH2) the Ki ([1]; Table 7, read-out: K1 HPK) was 2.5 mM, the Ki (urokinase (UK)) was over 20000 µM and the Ki ([2]; Table 7, read-out: K1 PPK) was 0.294 mM.

With `CC(C)[C@H](NC(=O)[C@H](CO)NC(=O)[C@H](CCCNC(=N)N)NC(=O)[C@H](Cc1ccccc1)NC(=O)[C@H](N)C12CC3CC(CC(C3)C1)C2)C(=O)N[C@@H](CCC(N)=O)C(N)=O` [KKI-88, [D-Adg]-Phe-Arg-Ser-Val-Gln] (H-[X3]FRSVQ-NH2; N-terminus assumed) the “ΔLog KO/W” value [3] was 1.88.

In the case of `CC(C)[C@H](NC(=O)[C@H](CO)NC(=O)[C@H](CCCNC(=N)N)NC(=O)[C@@H](NC(=O)[C@@H]1CCCN1)[C@@H](C)O)C(=O)N[C@@H](CCC(N)=O)C(N)=O` [KIDZ-14, Pro-Thr-Arg-Ser-Val-Gln] (H-PTRSVQ-NH2), the Ki (urokinase (UK)) is reported as over 20000 µM and the Ki ([2]; Table 7, read-out: K1 PPK) is reported as 0.4 to 0.8 mM.

With `CC(C)[C@H](NC(=O)[C@H](CO)NC(=O)[C@H](Cc1c[nH]cn1)NC(=O)[C@H](Cc1ccccc1)NC(=O)[C@@H]1CCCN1)C(=O)N[C@@H](CCC(N)=O)C(N)=O` [KIDZ-12, Pro-Phe-His-Ser-Val-Gln] (H-PFHSVQ-NH2) the Ki [1, 5] was over 20 mM, the Ki (urokinase (UK)) was over 20000 µM and the Ki [2, 6] was over 1 mM.

Compound `CC(C)[C@H](NC(=O)[C@H](CO)NC(=O)[C@H](CCCNC(=N)N)NC(=O)[C@H](Cc1ccc2ccccc2c1)NC(=O)[C@@H]1CCCN1)C(=O)N[C@@H](CCC(N)=O)C(N)=O` [KCH-6] (H-P[2Nal]RSVQ-NH2) has a Ki ([4]; Table 4, Pro-X-Arg-Ser-Val-Gln, read-out: KI HUK) of 114 µM, a Ki ([1]; Table 4, Pro-X-Arg-Ser-Val-Gln, read-out: KI HPK) of 0.665 mM and a Ki ([2]; Table 4, Pro-X-Arg-Ser-Val-Gln, read-out: KI PPK) of 0.133 mM.

Compound `CC(C)[C@H](NC(=O)[C@H](CO)NC(=O)[C@H](Cc1ccc(N)cc1)NC(=O)[C@H](Cc1ccccc1)NC(=O)[C@@H]1CCCN1)C(=O)N[C@@H](CCC(N)=O)C(N)=O` [KIDZ-6, Pro-Phe-Aph-Ser-Val-Gla] (H-PF[Phe(4-NH2)]SVQ-NH2) has a Ki ([4]; Table 7, read-out: K1 HUK) of 21 µM, a Ki ([4]; text b391, read-out: HUK KI) of under 50 µM and a Ki [1, 5] of over 10 mM. The Ki (urokinase (UK)) was over 20000 µM, the Ki ([2]; Table 7, read-out: K1 PPK) was 0.036 mM and the Ki ([2]; text b391, read-out: PPK KI) was under 0.05 mM.

With `CC(C)[C@H](NC(=O)[C@H](CC(N)=O)NC(=O)[C@H](CCCNC(=N)N)NC(=O)[C@H](Cc1ccccc1)NC(=O)[C@@H]1CCCN1)C(=O)N[C@@H](CCC(N)=O)C(N)=O` [Asn] (H-PFRNVQ-NH2) the Ki ([4]; Table 5, Pro-Phe-Arg-X-Val-Gln, read-out: KI HUK) was 99 µM, the Ki ([1]; Table 5, Pro-Phe-Arg-X-Val-Gln, read-out: KI HPK) was 0.244 mM and the Ki ([2]; Table 5, Pro-Phe-Arg-X-Val-Gln, read-out: KI PPK) was 0.058 mM and 0.099 mM and 0.067 mM. For the same compound, the Ki ([2]; Table 5, values in [] : Dithiothreitol, read-out: KI PPK) was 0.033 mM.

In the case of `CCC(CC)[C@@H](N)C(=O)N[C@@H](Cc1ccccc1)C(=O)N[C@@H](CCCNC(=N)N)C(=O)N[C@@H](CO)C(=O)N[C@H](C(=O)N[C@@H](CCC(N)=O)C(N)=O)C(C)C` [KKI-87, [D-Ile(4Me)]-Phe-Arg-Ser-Val-Gln] (H-[X2]FRSVQ-NH2; N-terminus assumed), the “ΔLog KO/W” value [3] is reported as 1.11.
